US8329757B2, “Curcumin analog compositions and related methods” (Charlesson, LLC, priority 2008, dated 2012)
Read-outs that look alike come from different tables or passages of the source.

Columns and labels:
Type in all cases: cell-based
[1] = test system: TNF-α-stimulated generation of reactive oxygen species in human retinal pigment epithelial cells (ARPE-19); assay: TNF-α-stimulated intracellular ROS generation (CM-H2DCFDA fluorescence); conditions: for effect on ROS production: same concentration range (2-8 μM), same conditions; for reduction of ROS: 24 h pretreatment, TNF-α 20 ng/ml, ARPE-19, n=6
Protocol: The intracellular generation of ROS was stimulated by TNF-α. Human retinal pigment epithelial cells (ARPE-19) were cultured on 96-well plates and pretreated with or without aminoguanidine, curcumin, and the CLT010 compounds for 24 h. TNF-α was added into culture medium at the concentration of 20 ng/ml and incubated with the cells for 1 h at 37° C. To measure ROS generation, 5-(and -6)-chloromethyl-2′,7′-dichlorodihydrofluorescein diacetate (CM-H2DCFDA) was added to the cells and incubated for 45 min. The relative fluorescence intensity representing the intracellular generation of ROS was measured using FLUOstar Omega at an emission wavelength of 535 nm, after excitation at 485 nm. TNF-α stimulated the intracellular generation of ROS by 36.9±8.4%, compounded with the untreated cells. Novel antioxidants reduced the intracellular ROS. At concentration of 8 μM, CLT010-01 reduced ROS by 40.5±6.3% (p<0.01, n=6), and CLT010-07 reduced ROS by 50.6±6.8% (p<0.01, n=6).
According to embodiments of experimental data shown in FIG. 2, ARPE-19 cells were pretreated with aminoguanidine, curcumin, CLT010-01, CLT010-07, and CLT010-12 at indicated concentrations for 24 h prior to the addition of TNF-α (20 ng/ml). The cells were incubated with CM-H2DCFDA for 45 min. Relative fluorescent intensity in the untreated cells, TNF-α-stimulated cells and compound plus TNF-α-treated cells. In FIG. 2B, the percentage of relative fluorescent intensity in each compound plus TNF-α-treated cells compared with that of TNF-α-stimulated cells is shown as the compound plus TNF-α vs TNF-α alone: *p<0.05, p<0.01, n=6.

[2] = test system: Primary bovine retinal capillary endothelial cells (BRCECs); assay: MTT cell proliferation assay, BRCECs; conditions: 72 hours, mean±SD, n=3, read-out: IC50 (μM) BRCEC
Protocol: (§1) Primary bovine retinal capillary endothelial cells (BRCECs), pericytes and human prostate adenocarcinoma cells (PC-3), and human breast cancer cells (MCF-7 and MDA-MB-231) were treated with the CLT010 compounds at various concentrations for 72 hours.

[3] = test system: VEGF in human retinal capillary endothelial cells (HRCECs); assay: CoCl2-induced VEGF over-expression, ELISA of conditioned medium; conditions: 24 h, CoCl2 200 μM; for reduction of VEGF levels: n=3
Protocol: To address if new antioxidants block VEGF over-expression induced by hypoxia, we measured levels of VEGF in human retinal capillary endothelial cells (HRCECs) after the exposure of CLT010-01, CLT010-07, and CLT010-12. The effect of new oxidants was compared with curcumin. HRCECs were seeded at a density of 4×10^4 cells/well in 400 μl of growth medium in triplicate in gelatin-coated 24-well plates, 24 h prior to the experiments. VEGF over-expression was induced by 200 μM of cobalt chloride (CoCl2). Cells were incubated with the medium in the presence or absence of CoCl2 and CoCl2 plus curcumin, CLT010-01, CLT010-07 and CLT010-12 at the concentrations of 0.5, 2, and 4 μM. The conditioned medium was collected 24 h after treatment. VEGF concentrations were measured by ELISA specific for VEGF using a commercial kit (R & D Systems, Minneapolis, Minn.). CoCl2 induced VEGF over-expression by 53.1±13.9%, compared to the untreated cells. The novel antioxidants reduced the expression of VEGF (FIGS. 3A and 3B). CLT010-01 reduced the VEGF levels by 48.8±7.8% at 4 μM (p<0.001, n=3). CLT010-07 inhibited the VEGF levels by 45.2±8.5 (p<0.01, n=3) and 57.2±4.4% (p<0.001, n=3) at 2 and 4 μM, respectively. CLT010-12 suppressed the VEGF expression by 24.2±10 (p<0.01, n=3), 58.2±7.2 (p<0.001, n=3), and 67.3±4.4% (p<0.001, n=3) at 0.5, 2 and 4 μM (p<0.001, n=3), respectively (FIG. 3B).
According to embodiments of experimental data shown in FIG. 3, HRCECs were cultured in the presence or absence of CoCl2, CoCl2 plus curcumin, CLT010-01, CLT010-07, and CLT010-12 at concentrations as indicated. The conditioned medium was collected after 24 h treatment. VEGF levels were measured by ELISA. In FIG. 3A, VEGF concentrations in the medium from the untreated cells, CoCl2-treated cells, and CoCl2 plus compound-treated cells are shown. In FIG. 3B, the percentage of VEGF concentrations in the medium from CoCl2 plus compound-treated cells compared with that of the medium from CoCl2-treated cells is shown. CoCl2 plus compounds plus vs. CoCl2: *p<0.01, p<0.001, n=3.

[4] = test system: human breast cancer cells (MDA-MB-231); assay: MTT cell proliferation assay, MDA-MB-231; conditions: mean±SD, n=3
Protocol: as §1

[5] = test system: human prostate adenocarcinoma cells (PC-3); assay: MTT cell proliferation assay, PC-3; conditions: 72 hours, mean±SD, n=3
Protocol: as §1

[6] = test system: pericytes; assay: MTT cell proliferation assay, pericytes; conditions: 72 hours
Protocol: as §1

[7] = test system: PC-3M; assay: MTT cell proliferation assay, PC-3M; conditions: 72 hours, mean±SD, n=3
Protocol: [The source words this procedure for another cell line and reports this cell line under the same test.] as §1

[8] = test system: Du145; assay: MTT cell proliferation assay, Du145; conditions: mean±SD, n=3
Protocol: [The source words this procedure for another cell line and reports this cell line under the same test.] as §1

[9] = test system: human breast cancer cells (MCF-7); assay: MTT cell proliferation assay, MCF-7; conditions: mean±SD, n=3
Protocol: as §1

[10] = test system: cancer cells; assay: MTT cell proliferation assay, cancer cells (summary over lines); conditions: Homo sapiens, 72 hours, range across cancer cell lines, read-out: IC50, growth of cancer cells (range over cell lines)
Protocol: as §1

Row | IC50 ([4]; 72 hours) [µM] | IC50 [5] [µM] | IC50 [7] [µM] | IC50 ([8]; 72 hours) [µM] | IC50 ([9]; 72 hours) [µM] | SMILES | effect on ROS production [1] | IC50 ([2]; Bos taurus, Endothelial cell) [µM] | reduction of VEGF levels ([3]; 4 μM) [%] | reduction of ROS ([1]; 8 μM) [%] | inhibition of the growth of pericytes [6] | reduction of VEGF levels ([3]; 2 μM) [%] | IC50 [2] [µM] | other results
1 | 3.1 ± 1.3 | 15.8 ± 1.6 | 8.5 ± 0.5 | 25.9 ± 0.3 | 5.5 ± 1.2 | COc1cc(/C=C/C(=O)CC(=O)/C=C/c2ccc(OS(N)(=O)=O)c(OC)c2)ccc1OS(N)(=O)=O [CLT010-01] | – | – | 48.8±7.8 | 40.5±6.3 | did not significantly inhibit | – | – | –
2 | 0.6 ± 0.1 | 1.9 ± 0.04 | 4.2 ± 0.1 | 6.3 ± 0.2 | 1.5 ± 0.1 | COc1cc(/C=C/C(=O)/C=C/c2cc(OC)c(OS(N)(=O)=O)c(OC)c2)cc(OC)c1OS(N)(=O)=O [CLT010-12] | – | – | 67.3±4.4 | 55.1±3.9 | did not significantly inhibit | 58.2±7.2 | 3.6 ± 0.2 | reduction of VEGF levels ([3]; 0.5 μM): 24.2±10%; reduction of ROS ([1]; 2 μM): 15.3±2.9%; reduction of ROS ([1]; 4 μM): 32.9±5.9%

The next lines start with the molecule.

Row | SMILES | IC50 ([4]; 72 hours) [µM] | IC50 [5] [µM] | IC50 [7] [µM] | IC50 ([8]; 72 hours) [µM] | IC50 ([9]; 72 hours) [µM] | effect on ROS production [1] | IC50 ([2]; Bos taurus, Endothelial cell) [µM] | reduction of VEGF levels ([3]; 4 μM) [%] | reduction of ROS ([1]; 8 μM) [%] | inhibition of the growth of pericytes [6] | reduction of VEGF levels ([3]; 2 μM) [%] | IC50 [2] [µM] | other results
3 | N=C(N)NN [Aminoguanidine, reference compound] | – | – | – | – | – | did not significantly affect | > 32 | – | – | – | – | – | –
4 | COc1cc(/C=C/c2cc(/C=C/c3ccc(OS(N)(=O)=O)c(OC)c3)[nH]n2)ccc1OS(N)(=O)=O [CLT010-07] | 6.2 ± 1.6 | 1.8 ± 0.3 | 6.7 ± 0.7 | 5.3 ± 2.4 | 6.5 ± 0.1 | – | – | 57.2±4.4 | 50.6±6.8 | did not significantly inhibit | 45.2±8.5 | 3.9 ± 0.1 | –
5 | COc1cc(/C=C/C(=O)CC(=O)/C=C/c2ccc(O)c(OC)c2)ccc1O [Curcumin] | – | – | – | – | – | did not significantly affect | 13.8 | – | – | – | – | – | inhibition of the release of VEGF from cells into medium ([3]; 0.5, 2, and 4 μM, p>0.05, n=3): did not significantly inhibit; IC50 ([4]; Homo sapiens, MDA-MB-231, 72 hours): 25.6 ± 4.8 µM; IC50 ([5]; Homo sapiens): 9.5 ± 1.6 µM; IC50 [10]: 9.5 to 25.6 µM; IC50 ([7]; Homo sapiens, PC-3M): 10.7 ± 1.3 µM; IC50 ([8]; Homo sapiens, DU-145, 72 hours): 20.7 ± 3.5 µM; IC50 ([9]; Homo sapiens, MCF7, 72 hours): 21.5 ± 4.7 µM
